{"source": "patent US20230234942A1", "about": "“COMPOUNDS FOR TREATING HUNTINGTON'S DISEASE” (PTC Therapeutics, Inc., priority 2020, published 2023)", "system": "Endogenous Huntingtin Protein", "experiment": "Endogenous Huntingtin Protein Assay (ELISA-based MSD electrochemiluminescence)", "assay_type": "cell-based", "how_it_was_run": "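Endogenous huntingtin measured on MSD plates coated with MW1 (polyglutamine-expanded) or MAB2166 capture antibody; lysates bound overnight at 4 °C. Signal developed with #56565 rabbit monoclonal and goat anti-rabbit SULFO-TAG (0.25 µg/mL, 1 h RT each), electrochemiluminescence read on SI 6000.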", "key": {"[1]": {"details": "Table 2, MSD plates coated with MW1 (expanded polyglutamine) or MAB2166 capture antibody, \"inactive\" = result above the detection limit of the assay"}}, "note": "pIC50: −log10 of the molar value.", "data": [{"smiles": "CC(C)[C@H]1CN(c2ncc(-c3ccc(-c4cnc5n4CCC5)cc3O)nn2)CCN1", "note": "[Cpd 279, 5-(6,7-dihydro-5H-pyrrolo[1,2-a]imidazol-3-yl)-2-{3-[(3S)-3-(propan-2-yl)piperazin-1-yl]-1,2,4-triazin-6-yl}phenol]", "values": [{"measurement": "pIC50", "setting": "[1]", "result": 8.28}]}, {"smiles": "CC(C)[C@H]1CN(c2ncc(-c3ccc(-c4cnn5ccccc45)cc3O)nn2)CCN1", "note": "[Cpd 244, 2-{3-[(3S)-3-(propan-2-yl)piperazin-1-yl]-1,2,4-triazin-6-yl}-5-(pyrazolo[1,5-a]pyridin-3-yl)phenol]", "values": [{"measurement": "pIC50", "setting": "[1]", "result": 6.42}]}, {"smiles": "CN1CCN(c2ncc(-c3ccc(-c4cn[nH]c4)cc3O)nn2)CC1C1COC1", "note": "(stereo not shown) [Cpd 187, 2-{3-[4-methyl-3-(oxetan-3-yl)piperazin-1-yl]-1,2,4-triazin-6-yl}-5-(1H-pyrazol-4-yl)phenol]", "values": [{"measurement": "pIC50", "setting": "[1]", "result": 6.40}]}, {"smiles": "C[C@@H]1CN(c2ncc(-c3ccc(-c4c[nH]nc4F)cc3O)nn2)C[C@H](C(C)(C)C)N1", "note": "[Cpd 248, 2-{3-[(3S,5R)-3-tert-butyl-5-methylpiperazin-1-yl]-1,2,4-triazin-6-yl]-5-(3-fluoro-1H-pyrazol-4-yl)phenol]", "values": [{"measurement": "pIC50", "setting": "[1]", "result": 7.13}]}, {"smiles": "CC(C)[C@H]1CN(c2ncc(-c3ccc(-c4ncc(C#N)s4)cc3O)nn2)CCN1", "note": "[Cpd 272, 2-(3-hydroxy-4-{3-[(3S)-3-(propan-2-yl)piperazin-1-yl]-1,2,4-triazin-6-yl}phenyl)-1,3-thiazole-5-carbonitrile]", "values": [{"measurement": "pIC50", "setting": "[1]", "result": 6.45}]}, {"smiles": "Cc1cn2nc(-c3ccc(-c4cnc(N5C[C@@H](C)N(C)[C@@H](C)C5)nn4)c(O)c3)cc(C#N)c2n1", "note": "[Cpd 108, 6-(3-hydroxy-4-{3-[(3R,5S)-3,4,5-trimethylpiperazin-1-yl]-1,2,4-triazin-6-yl]phenyl)-2-methylimidazo[1,2-b]pyridazine-8-carbonitrile]", "values": [{"measurement": "pIC50", "setting": "[1]", "result": 7.70}]}, {"smiles": "[2H]C([2H])([2H])n1cc(-c2ccc(-c3cnc(N4CCN[C@@H](C(C)C)C4)nn3)c(O)c2)cn1", "note": "[Cpd 47, 5-[1-(Hz)methyl-1H-pyrazol-4-yl]-2-{3-[(3S)-3-(propan-2-yl)piperazin-1-yl]-1,2,4-triazin-6-yl}phenol]", "values": [{"measurement": "pIC50", "setting": "[1]", "result": 6.81}]}, {"smiles": "CC(C)[C@H]1CN(c2ncc(-c3ccc(-c4cnc5nsnc5c4)cc3O)nn2)CCN1", "note": "[Cpd 264, 2-{3-[(3S)-3-(propan-2-yl)piperazin-1-yl]-1,2,4-triazin-6-yl}-5-([1,2,5]thiadiazolo[3,4-b]pyridin-6-yl)phenol]", "values": [{"measurement": "pIC50", "setting": "[1]", "result": 6.90}]}, {"smiles": "COc1cc(-c2ccc(-c3cnc(N4CCN[C@@H](C(C)C)C4)nn3)c(O)c2)nc(OC)n1", "note": "[Cpd 207, 5-(2,6-dimethoxypyrimidin-4-yl)-2-{3-[(3S)-3-(propan-2-yl)piperazin-1-yl]-1,2,4-triazin-6-yl}phenol]", "values": [{"measurement": "pIC50", "setting": "[1]", "result": 8.00}]}, {"smiles": "Cc1cc(-c2cn[nH]c2)cc(O)c1-c1cnc(N2CCN[C@@H](C(C)C)C2)nn1", "note": "[Cpd 127, 3-methyl-2-{3-[(3S)-3-(propan-2-yl)piperazin-1-yl]-1,2,4-triazin-6-yl}-5-(1H-pyrazol-4-yl)phenol]", "values": [{"measurement": "pIC50", "setting": "[1]", "result": 6.17}]}, {"smiles": "Cc1ccc(-c2ccc(-c3cnc(N4CCN[C@@H](C(C)C)C4)nn3)c(O)c2)cn1", "note": "[Cpd 160, 5-(6-methylpyridin-3-yl)-2-{3-[(3S)-3-(propan-2-yl)piperazin-1-yl]-1,2,4-triazin-6-yl]phenol]", "values": [{"measurement": "pIC50", "setting": "[1]", "result": 6.10}]}, {"smiles": "Cc1cc(-c2ccc(-c3cnc(N4CCNC(C(C)C)C4)nn3)c(O)c2)ncn1", "note": "(racemic) [Cpd 149, 5-(6-methylpyrimidin-4-yl)-2-{3-[(3RS)-3-(propan-2-yl)piperazin-1-yl]-1,2,4-triazin-6-yl}phenol]", "values": [{"measurement": "pIC50", "setting": "[1]", "result": 7.04}]}, {"smiles": "C[C@@H]1CN(c2ncc(-c3ccc(-c4ccc5nn(C)cc5c4)cc3O)nn2)C[C@H](C)N1", "note": "[Cpd 72, 2-{3-[(3R,5S)-3,5-dimethylpiperazin-1-yl]-1,2,4-triazin-6-yl]-5-(2-methyl-2H-indazol-5-yl)phenol]", "values": [{"measurement": "pIC50", "setting": "[1]", "result": 8.39}]}, {"smiles": "Oc1cc(-c2cn[nH]c2)ccc1-c1cnc(N2CCN(C3CC3)CC2)nn1", "note": "[Cpd 63, 2-[3-(4-cyclopropylpiperazin-1-yl)-1,2,4-triazin-6-yl]-5-(1H-pyrazol-4-yl)phenol]", "values": [{"measurement": "IC50 (nM)", "setting": "[1]", "result": "inactive"}]}, {"smiles": "[2H]C([2H])([2H])n1cc(-c2ccc(-c3cnc(N4CCN[C@@H](C5CC5)C4)nn3)c(O)c2)cn1", "note": "[Cpd 9, 2-{3-[(3S)-3-cyclopropylpiperazin-1-yl]-1,2,4-triazin-6-yl}-5-[1-(^2H3)methyl-1H-pyrazol-4-yl]phenol]", "values": [{"measurement": "pIC50", "setting": "[1]", "result": 8.02}]}, {"smiles": "CC[C@H]1CN(c2ncc(-c3ccc(-c4cnc5nn(C)nc5c4)cc3O)nn2)C[C@@H](C)N1", "note": "[Cpd 214, 2-{3-[(3S,5R)-3-ethyl-5-methylpiperazin-1-yl]-1,2,4-triazin-6-yl]-5-(2-methyl-2H-[1,2,3]triazolo[4,5-b]pyridin-6-yl)phenol]", "values": [{"measurement": "pIC50", "setting": "[1]", "result": 7.44}]}, {"smiles": "[2H]C([2H])([2H])n1cc(-c2ccc(-c3cnc(N4CCNC(C(C)(C)O)C4)nn3)c(O)c2)cn1", "note": "(stereo not shown) [Cpd 19, 2-{3-[3-(2-hydroxypropan-2-yl)piperazin-1-yl]-1,2,4-triazin-6-yl}-5-[1-(^2H3)methyl-1H-pyrazol-4-yl]phenol]", "values": [{"measurement": "pIC50", "setting": "[1]", "result": 7.77}]}, {"smiles": "Cn1nc2cnc(-c3ccc(-c4cnc(N5CCN[C@@H](C6CC6)C5)nn4)c(O)c3)cc2n1", "note": "[Cpd 172, 2-{3-[(3S)-3-cyclopropylpiperazin-1-yl]-1,2,4-triazin-6-yl}-5-(2-methyl-2H-[1,2,3]triazolo[4,5-c]pyridin-6-yl)phenol]", "values": [{"measurement": "pIC50", "setting": "[1]", "result": 8.40}]}, {"smiles": "Cc1cc2nc(-c3ccc(-c4cnc(N5C[C@@H](C)N[C@@H](C)C5)nn4)c(O)c3)sc2c(C)n1", "note": "[Cpd 116, 2-{3-[(3R,5S)-3,5-dimethylpiperazin-1-yl]-1,2,4-triazin-6-yl}-5-(4,6-dimethyl[1,3]thiazolo[5,4-c]pyridin-2-yl)phenol]", "values": [{"measurement": "pIC50", "setting": "[1]", "result": 6.17}]}, {"smiles": "C[C@@H]1CN(c2ncc(-c3ccc(-c4ccc5nccn5n4)cc3O)nn2)C[C@H](C)N1", "note": "[WO/2019/191229 A1 Cpd 385, reference compound]", "values": [{"measurement": "pIC50", "setting": "Table 3, selected compounds from WO/2019/191229 A1, same MSD assay", "result": 7.48}]}, {"smiles": "COc1cc(-c2ccc(-c3cnc(N4C[C@@H](C)N[C@@H](C(C)C)C4)nn3)c(O)c2)ncn1", "note": "[Cpd 230, 5-(6-methoxypyrimidin-4-yl)-2-{3-[(3R,5S)-3-methyl-5-(propan-2-yl)piperazin-1-yl]-1,2,4-triazin-6-yl}phenol]", "values": [{"measurement": "pIC50", "setting": "[1]", "result": 7.95}]}, {"smiles": "COc1nnc(-c2ccc(-c3cnc(N4CCN[C@@H](C(C)C)C4)nn3)c(O)c2)s1", "note": "[Cpd 204, 5-(5-methoxy-1,3,4-thiadiazol-2-yl)-2-{3-[(3S)-3-(propan-2-yl)piperazin-1-yl]-1,2,4-triazin-6-yl}phenol]", "values": [{"measurement": "pIC50", "setting": "[1]", "result": 6.79}]}, {"smiles": "CC(C)[C@H]1CN(c2ncc(-c3ccc(-c4ncns4)cc3O)nn2)C[C@@H](C)N1", "note": "(single isomer, unassigned) [Cpd 268, 2-{3-[(3R,5S)-3-methyl-5-(propan-2-yl)piperazin-1-yl]-1,2,4-triazin-6-yl}-5-(1,2,4-thiadiazol-5-yl)phenol or 2-{3-[(3S,5R)-3-methyl-5-(propan-2-yl)piperazin-1-yl]-1,2,4-triazin-6-yl}-5-(1,2,4-thiadiazol-5-yl)phenol]", "values": [{"measurement": "pIC50", "setting": "[1]", "result": 6.90}]}, {"smiles": "CC(C)[C@H]1CN(c2ncc(-c3ccc(-c4cn[nH]c4)cc3O)nn2)CCN1", "note": "[Cpd 20, 2-{3-[(3S)-3-(propan-2-yl)piperazin-1-yl]-1,2,4-triazin-6-yl}-5-(1H-pyrazol-4-yl)phenol]", "values": [{"measurement": "pIC50", "setting": "[1]", "result": 7.77}]}, {"smiles": "Oc1cc(-c2ncco2)ccc1-c1cnc(N2CCN[C@@H](C3CC3)C2)nn1", "note": "[Cpd 233, 2-{3-[(3S)-3-cyclopropylpiperazin-1-yl]-1,2,4-triazin-6-yl}-5-(1,3-oxazol-2-yl)phenol]", "values": [{"measurement": "pIC50", "setting": "[1]", "result": 7.75}]}, {"smiles": "Oc1cc(-c2cn[nH]c2)ccc1-c1cnc(N2CCNC(C3CC3)C2)nn1", "note": "(stereo not shown) [Cpd 5, 2-[3-(3-cyclopropylpiperazin-1-yl)-1,2,4-triazin-6-yl]-5-(1H-pyrazol-4-yl)phenol]", "values": [{"measurement": "pIC50", "setting": "[1]", "result": 8.22}]}, {"smiles": "Oc1cc(-c2cn[nH]c2F)cc(F)c1-c1cnc(N2CCNC(C3CC3)C2)nn1", "note": "(stereo not shown) [Cpd 32, 2-[3-(3-cyclopropylpiperazin-1-yl)-1,2,4-triazin-6-yl]-3-fluoro-5-(5-fluoro-1H-pyrazol-4-yl)phenol]", "values": [{"measurement": "pIC50", "setting": "[1]", "result": 7.40}]}, {"smiles": "Cn1nnc2ccc(-c3ccc(-c4cnc(N5CCN[C@@H](C6CC6)C5)nn4)c(O)c3)nc21", "note": "[Cpd 173, 2-{3-[(3S)-3-cyclopropylpiperazin-1-yl]-1,2,4-triazin-6-yl}-5-(3-methyl-3H-[1,2,3]triazolo[4,5-b]pyridin-5-yl)phenol]", "values": [{"measurement": "pIC50", "setting": "[1]", "result": 7.67}]}, {"smiles": "CC(C)[C@H]1CN(c2ncc(-c3ccc(-c4ccc5nccn5n4)cc3O)nn2)CCN1", "note": "[Cpd 102, 5-(imidazo[1,2-b]pyridazin-6-yl)-2-{3-[(3S)-3-(propan-2-yl)piperazin-1-yl]-1,2,4-triazin-6-yl}phenol]", "values": [{"measurement": "pIC50", "setting": "[1]", "result": 7.87}]}, {"smiles": "Cc1nc2ncc(-c3ccc(-c4cnc(N5C[C@@H](C)N[C@@H](C)C5)nn4)c(O)c3)cn2n1", "note": "[Cpd 112, 2-{3-[(3R,5S)-3,5-dimethylpiperazin-1-yl]-1,2,4-triazin-6-yl}-5-(2-methyl[1,2,4]triazolo[1,5-a]pyrimidin-6-yl)phenol]", "values": [{"measurement": "pIC50", "setting": "[1]", "result": 7.47}]}, {"smiles": "C[C@@H]1CN(c2ncc(-c3ccc(-c4cc(C#N)c5nn(C)cc5c4)cc3O)nn2)C[C@H](C)N1", "note": "[Cpd 80, 5-(4-{3-[(3R,5S)-3,5-dimethylpiperazin-1-yl]-1,2,4-triazin-6-yl}-3-hydroxyphenyl)-2-methyl-2H-indazole-7-carbonitrile]", "values": [{"measurement": "pIC50", "setting": "[1]", "result": 8.28}]}, {"smiles": "Cc1nc2cnc(-c3ccc(-c4cnc(N5C[C@@H](C)N[C@@H](C)C5)nn4)c(O)c3)cn2n1", "note": "[Cpd 106, 2-{3-[(3R,5S)-3,5-dimethylpiperazin-1-yl]-1,2,4-triazin-6-yl}-5-(2-methyl[1,2,4]triazolo[1,5-a]pyrazin-6-yl)phenol]", "values": [{"measurement": "pIC50", "setting": "[1]", "result": 7.78}]}, {"smiles": "Cn1cc2cc(-c3cnc(-c4cnc(N5CCN[C@@H](C6CC6)C5)nn4)c(O)c3)cc(F)c2n1", "note": "[Cpd 181, 2-{3-[(3S)-3-cyclopropylpiperazin-1-yl]-1,2,4-triazin-6-yl}-5-(7-fluoro-2-methyl-2H-indazol-5-yl)pyridin-3-ol]", "values": [{"measurement": "pIC50", "setting": "[1]", "result": 8.21}]}, {"smiles": "Cn1nc2cc(-c3ccc(-c4cnc(N5CCN[C@@H](C6CC6)C5)nn4)c(O)c3)cnc2n1", "note": "[Cpd 168, 2-{3-[(3S)-3-cyclopropylpiperazin-1-yl]-1,2,4-triazin-6-yl}-5-(2-methyl-2H-[1,2,3]triazolo[4,5-b]pyridin-6-yl)phenol]", "values": [{"measurement": "pIC50", "setting": "[1]", "result": 8.77}]}]}
